Activity calls are given as the source filed them.
Assays:
[1] = molecular target: T1, Tyrosine-protein phosphatase non-receptor type 7 (Homo sapiens, UniProt P35236); test: inhibitors of human HePTP phosphatase, […], biochemical, absorbance, leukemia target (AID 521); format: functional
T1 sequence (P35236 whole entry): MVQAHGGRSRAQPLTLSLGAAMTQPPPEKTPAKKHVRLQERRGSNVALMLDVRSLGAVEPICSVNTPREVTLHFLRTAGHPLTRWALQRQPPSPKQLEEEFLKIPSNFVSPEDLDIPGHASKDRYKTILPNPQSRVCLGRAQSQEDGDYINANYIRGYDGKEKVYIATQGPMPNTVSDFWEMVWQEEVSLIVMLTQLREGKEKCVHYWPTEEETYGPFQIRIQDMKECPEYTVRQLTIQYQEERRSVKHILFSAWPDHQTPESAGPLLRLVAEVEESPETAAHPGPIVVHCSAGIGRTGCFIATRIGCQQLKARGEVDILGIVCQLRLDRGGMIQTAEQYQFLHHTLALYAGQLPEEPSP

[2] = molecular target: Ubiquitin carboxyl-terminal hydrolase BAP1 (Homo sapiens, UniProt Q92560); test: BAP1 deubiquitinase inhibitors, dose response, biochemical (AID 714); format: functional
[3] = molecular target: T2, Voltage-gated N-type calcium channel alpha-1B subunit/Amyloid beta A4 precursor protein-binding family A member 1 (Homo sapiens, UniProt Q00975+Q02410); format: protein assay
[4] = M. tuberculosis H37Rv growth inhibitors, H37Rv strain (AID 1626); format: functional
[5] = molecular target: Luciferin 4-monooxygenase (Photinus pyralis, UniProt P08659); test: firefly luciferase enzyme inhibitors, dose response, biochemical, luminescence (AID 1891)
[6] = Luminescence Cell-Based Dose Confirmation HTS to Identify Inhibitors of Platelet Dense Granule Release. [Related pubchem assays: 1663 (Primary HTS), 1678 (Summary of Project)]; format: functional
[7] = molecular target: T2, Voltage-gated N-type calcium channel alpha-1B subunit/Amyloid beta A4 precursor protein-binding family A member 1; format: protein assay; remark: listed apart in the source
[8] = Luminescent dose response cell-based high throughput screening assay for inhibitors of the Janus kinase 2 mutant JAK2V617F. [Related pubchem assays: 1446 (Primary screen.), 1521 (Confirmation assay.), 1486 (Counter screen.)]; format: functional
[9] = molecular target: T3, Replicative DNA helicase DnaB (Mycobacterium tuberculosis, UniProt P9WMR3); test: DnaB intein splicing inhibitors, dose response, biochemical, cell-free fluorescence (AID 449749); format: functional
T3 sequence (P9WMR3 whole entry): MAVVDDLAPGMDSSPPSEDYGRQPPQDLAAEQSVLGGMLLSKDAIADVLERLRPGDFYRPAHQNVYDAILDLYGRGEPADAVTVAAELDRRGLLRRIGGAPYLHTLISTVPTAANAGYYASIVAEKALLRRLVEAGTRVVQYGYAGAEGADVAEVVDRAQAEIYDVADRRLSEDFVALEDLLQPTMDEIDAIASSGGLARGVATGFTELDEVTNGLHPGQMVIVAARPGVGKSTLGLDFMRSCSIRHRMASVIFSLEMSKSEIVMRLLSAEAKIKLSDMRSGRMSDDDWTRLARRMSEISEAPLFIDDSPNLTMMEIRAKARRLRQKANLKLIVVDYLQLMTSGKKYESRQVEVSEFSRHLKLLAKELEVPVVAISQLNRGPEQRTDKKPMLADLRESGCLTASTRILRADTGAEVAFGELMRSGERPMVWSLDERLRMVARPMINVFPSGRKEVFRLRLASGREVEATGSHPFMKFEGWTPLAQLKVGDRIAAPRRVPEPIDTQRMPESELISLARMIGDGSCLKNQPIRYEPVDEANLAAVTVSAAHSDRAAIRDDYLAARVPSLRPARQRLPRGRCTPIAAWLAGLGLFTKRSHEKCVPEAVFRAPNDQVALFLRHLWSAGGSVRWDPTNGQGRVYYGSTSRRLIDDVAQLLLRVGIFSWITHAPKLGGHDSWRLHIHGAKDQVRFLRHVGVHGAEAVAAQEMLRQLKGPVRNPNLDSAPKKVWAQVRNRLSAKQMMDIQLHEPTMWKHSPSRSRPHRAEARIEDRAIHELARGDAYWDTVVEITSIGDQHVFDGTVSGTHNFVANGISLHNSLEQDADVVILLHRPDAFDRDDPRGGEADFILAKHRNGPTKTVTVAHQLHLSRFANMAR

[10] = molecular target: T4, Protein RecA (Mycobacterium tuberculosis, UniProt P9WHJ3); test: Fluorescence Cell-Free Homogeneous Dose Retest to Identify Inhibitors of RecA-Intein Splicing Activity. [Related pubchem assays (depositor defined):AID2097, AID2223, AID489010, AID492950]; format: functional
T4 sequence (P9WHJ3 whole entry): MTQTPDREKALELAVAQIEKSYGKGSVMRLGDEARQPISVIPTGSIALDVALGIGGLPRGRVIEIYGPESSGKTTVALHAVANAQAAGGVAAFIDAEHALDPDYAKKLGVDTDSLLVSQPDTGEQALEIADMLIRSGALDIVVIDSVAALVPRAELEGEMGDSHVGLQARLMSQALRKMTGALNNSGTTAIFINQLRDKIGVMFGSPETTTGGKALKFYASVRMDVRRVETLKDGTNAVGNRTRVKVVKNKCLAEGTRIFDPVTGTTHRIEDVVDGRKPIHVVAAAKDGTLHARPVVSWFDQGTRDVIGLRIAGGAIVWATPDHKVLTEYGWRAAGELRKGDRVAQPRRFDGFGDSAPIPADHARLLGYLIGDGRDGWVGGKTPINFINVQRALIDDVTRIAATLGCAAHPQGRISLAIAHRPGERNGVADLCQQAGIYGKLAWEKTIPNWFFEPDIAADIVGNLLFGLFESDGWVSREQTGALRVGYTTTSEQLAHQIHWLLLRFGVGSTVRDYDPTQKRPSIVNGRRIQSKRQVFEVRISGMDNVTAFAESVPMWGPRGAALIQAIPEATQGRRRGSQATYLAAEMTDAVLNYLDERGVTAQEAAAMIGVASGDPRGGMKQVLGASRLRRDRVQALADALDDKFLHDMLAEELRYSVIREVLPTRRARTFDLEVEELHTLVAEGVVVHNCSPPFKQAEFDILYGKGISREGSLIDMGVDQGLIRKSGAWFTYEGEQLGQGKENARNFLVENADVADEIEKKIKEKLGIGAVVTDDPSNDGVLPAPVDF

[11] = molecular target: Sphingosine 1-phosphate receptor 2 (Homo sapiens, UniProt O95136); test: Dose Response Cell Based Assay for Agonists of the S1P2 Receptor. [Related pubchem assays: 729, 736, 843 ]; format: functional
[12] = molecular target: T5, Rac GTPase-activating protein 1 (Homo sapiens, UniProt Q9H0H5); test: MgcRacGAP GTPase-activating activity inhibitors, confirmation, biochemical, ADP Hunter fluorescence, primary and confirmatory (AID 624330); format: functional
T5 sequence (Q9H0H5 whole entry): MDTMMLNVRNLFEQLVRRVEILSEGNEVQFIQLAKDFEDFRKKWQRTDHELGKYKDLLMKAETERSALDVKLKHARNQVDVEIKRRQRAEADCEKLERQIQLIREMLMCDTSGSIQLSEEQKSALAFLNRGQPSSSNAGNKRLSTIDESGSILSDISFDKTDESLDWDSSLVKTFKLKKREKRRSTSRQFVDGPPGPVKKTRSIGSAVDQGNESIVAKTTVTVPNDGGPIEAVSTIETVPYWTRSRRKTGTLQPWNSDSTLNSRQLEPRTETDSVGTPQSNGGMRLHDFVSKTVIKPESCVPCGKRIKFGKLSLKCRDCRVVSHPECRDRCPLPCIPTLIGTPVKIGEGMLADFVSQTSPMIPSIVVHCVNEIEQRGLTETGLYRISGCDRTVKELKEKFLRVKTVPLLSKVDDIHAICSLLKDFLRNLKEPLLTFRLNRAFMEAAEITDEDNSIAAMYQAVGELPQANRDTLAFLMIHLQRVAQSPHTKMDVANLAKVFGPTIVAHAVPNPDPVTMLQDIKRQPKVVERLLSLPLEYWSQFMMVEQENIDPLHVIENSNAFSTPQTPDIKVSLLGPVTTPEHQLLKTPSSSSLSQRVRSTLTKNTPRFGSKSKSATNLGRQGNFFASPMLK

[13] = tested on: Streptococcus sp. 'group A'; test: growth inhibition of control SK(-) GAS strain, dose response, counter-screen for streptokinase expression inhibitor project, luminescence, kanamycin, BacTiterGlo, confirmation (AID 1900); format: functional, organism-based
[14] = cells; format: functional, cell-based
[15] = molecular target: T6, Streptokinase A (Streptococcus pyogenes serotype M1, UniProt P10520); test: S. pyogenes streptokinase expression inhibitors, potency, dose response, plasminogen activation absorbance, OD405 (AID 1914); format: functional, Streptococcus pyogenes M1 GAS;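 further: secreted streptokinase activity via plasminogen activation per viability signal from cell pellet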
T6 sequence (P10520 whole entry): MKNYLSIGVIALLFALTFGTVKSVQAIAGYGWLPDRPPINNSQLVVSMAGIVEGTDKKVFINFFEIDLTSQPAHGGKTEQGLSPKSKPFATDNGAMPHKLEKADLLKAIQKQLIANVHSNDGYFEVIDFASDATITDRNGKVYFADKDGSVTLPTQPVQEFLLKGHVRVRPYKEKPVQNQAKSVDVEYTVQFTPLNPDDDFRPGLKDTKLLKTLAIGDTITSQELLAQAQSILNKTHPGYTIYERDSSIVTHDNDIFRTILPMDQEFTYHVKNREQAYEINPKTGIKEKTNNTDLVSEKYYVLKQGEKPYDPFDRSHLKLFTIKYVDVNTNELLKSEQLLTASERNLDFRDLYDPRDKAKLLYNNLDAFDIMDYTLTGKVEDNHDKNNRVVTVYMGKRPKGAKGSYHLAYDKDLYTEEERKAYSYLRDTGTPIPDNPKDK

[16] = inhibitors of intracellular T. cruzi replication, confirmation, NIH3T3 host cells, beta-gal luminescence (AID 2044); format: functional, cell-based;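 further: intracellular parasites grown in NIH/3T3 mouse fibroblasts as host cells; luminescent beta-galactosidase reporter signal from transgenic T. cruzi replicating inside host cells; inhibitors lower the luminescence signal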
[17] = cells; format: functional, cell-based; remark: listed apart in the source
[18] = molecular target: Galanin receptor type 2 (Homo sapiens, UniProt O43603); test: Dose Response cell-based high-throughput screening assay to identify agonists of galanin receptor 2 (GALR2). [Related pubchem assays: 864 ]; format: functional
[19] = cytotoxicity toward NIH3T3 fibroblasts, dose response, counter-screen, cell-based, ATP luminescence, mouse fibroblasts (AID 2010); format: functional;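 further: cells exposed to compound for about 90 hours before reading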
[20] = tested on: Streptococcus; test: Group A Streptococcus viability loss, dose response, counter-screen for streptokinase expression inhibitor project, luminescence, BacTiterGlo (AID 1915); format: functional, organism-based;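 further: potency for reduction of bacterial viability or growth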
[21] = tested on: INS1; test: beta cell apoptosis inhibitors, cytokine rescue, dose response, luminescence, retest (AID 449756); format: functional, cell-based; conditions: Rattus norvegicus;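 further: cell death triggered by IL-1 beta plus TNF-alpha plus IFN-gamma mixture; protective hits raise ATP signal compared with cytokine alone wells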
[22] = molecular target: Cytochrome P450 2C19 (Homo sapiens, UniProt P33261); test: qHTS Assay for Inhibitors and Substrates of Cytochrome P450 2C19. [Related pubchem assays: 410 ]; format: ADME; conditions: read-out: Potency
Chain of Cytochrome P450 2C19 (P33261 whole entry): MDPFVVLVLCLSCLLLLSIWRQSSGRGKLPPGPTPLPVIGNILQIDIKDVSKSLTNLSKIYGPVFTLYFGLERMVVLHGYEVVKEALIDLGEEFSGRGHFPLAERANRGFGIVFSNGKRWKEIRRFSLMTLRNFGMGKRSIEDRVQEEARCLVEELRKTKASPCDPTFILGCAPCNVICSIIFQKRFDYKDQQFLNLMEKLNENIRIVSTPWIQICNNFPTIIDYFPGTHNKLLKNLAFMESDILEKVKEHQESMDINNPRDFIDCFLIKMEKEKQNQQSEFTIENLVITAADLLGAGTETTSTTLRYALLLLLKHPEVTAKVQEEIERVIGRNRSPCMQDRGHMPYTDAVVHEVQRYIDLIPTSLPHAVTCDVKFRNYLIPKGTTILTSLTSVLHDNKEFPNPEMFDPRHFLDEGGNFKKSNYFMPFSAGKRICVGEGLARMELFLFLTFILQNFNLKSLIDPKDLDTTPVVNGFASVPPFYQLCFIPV

T2 sequence (Q00975 whole entry): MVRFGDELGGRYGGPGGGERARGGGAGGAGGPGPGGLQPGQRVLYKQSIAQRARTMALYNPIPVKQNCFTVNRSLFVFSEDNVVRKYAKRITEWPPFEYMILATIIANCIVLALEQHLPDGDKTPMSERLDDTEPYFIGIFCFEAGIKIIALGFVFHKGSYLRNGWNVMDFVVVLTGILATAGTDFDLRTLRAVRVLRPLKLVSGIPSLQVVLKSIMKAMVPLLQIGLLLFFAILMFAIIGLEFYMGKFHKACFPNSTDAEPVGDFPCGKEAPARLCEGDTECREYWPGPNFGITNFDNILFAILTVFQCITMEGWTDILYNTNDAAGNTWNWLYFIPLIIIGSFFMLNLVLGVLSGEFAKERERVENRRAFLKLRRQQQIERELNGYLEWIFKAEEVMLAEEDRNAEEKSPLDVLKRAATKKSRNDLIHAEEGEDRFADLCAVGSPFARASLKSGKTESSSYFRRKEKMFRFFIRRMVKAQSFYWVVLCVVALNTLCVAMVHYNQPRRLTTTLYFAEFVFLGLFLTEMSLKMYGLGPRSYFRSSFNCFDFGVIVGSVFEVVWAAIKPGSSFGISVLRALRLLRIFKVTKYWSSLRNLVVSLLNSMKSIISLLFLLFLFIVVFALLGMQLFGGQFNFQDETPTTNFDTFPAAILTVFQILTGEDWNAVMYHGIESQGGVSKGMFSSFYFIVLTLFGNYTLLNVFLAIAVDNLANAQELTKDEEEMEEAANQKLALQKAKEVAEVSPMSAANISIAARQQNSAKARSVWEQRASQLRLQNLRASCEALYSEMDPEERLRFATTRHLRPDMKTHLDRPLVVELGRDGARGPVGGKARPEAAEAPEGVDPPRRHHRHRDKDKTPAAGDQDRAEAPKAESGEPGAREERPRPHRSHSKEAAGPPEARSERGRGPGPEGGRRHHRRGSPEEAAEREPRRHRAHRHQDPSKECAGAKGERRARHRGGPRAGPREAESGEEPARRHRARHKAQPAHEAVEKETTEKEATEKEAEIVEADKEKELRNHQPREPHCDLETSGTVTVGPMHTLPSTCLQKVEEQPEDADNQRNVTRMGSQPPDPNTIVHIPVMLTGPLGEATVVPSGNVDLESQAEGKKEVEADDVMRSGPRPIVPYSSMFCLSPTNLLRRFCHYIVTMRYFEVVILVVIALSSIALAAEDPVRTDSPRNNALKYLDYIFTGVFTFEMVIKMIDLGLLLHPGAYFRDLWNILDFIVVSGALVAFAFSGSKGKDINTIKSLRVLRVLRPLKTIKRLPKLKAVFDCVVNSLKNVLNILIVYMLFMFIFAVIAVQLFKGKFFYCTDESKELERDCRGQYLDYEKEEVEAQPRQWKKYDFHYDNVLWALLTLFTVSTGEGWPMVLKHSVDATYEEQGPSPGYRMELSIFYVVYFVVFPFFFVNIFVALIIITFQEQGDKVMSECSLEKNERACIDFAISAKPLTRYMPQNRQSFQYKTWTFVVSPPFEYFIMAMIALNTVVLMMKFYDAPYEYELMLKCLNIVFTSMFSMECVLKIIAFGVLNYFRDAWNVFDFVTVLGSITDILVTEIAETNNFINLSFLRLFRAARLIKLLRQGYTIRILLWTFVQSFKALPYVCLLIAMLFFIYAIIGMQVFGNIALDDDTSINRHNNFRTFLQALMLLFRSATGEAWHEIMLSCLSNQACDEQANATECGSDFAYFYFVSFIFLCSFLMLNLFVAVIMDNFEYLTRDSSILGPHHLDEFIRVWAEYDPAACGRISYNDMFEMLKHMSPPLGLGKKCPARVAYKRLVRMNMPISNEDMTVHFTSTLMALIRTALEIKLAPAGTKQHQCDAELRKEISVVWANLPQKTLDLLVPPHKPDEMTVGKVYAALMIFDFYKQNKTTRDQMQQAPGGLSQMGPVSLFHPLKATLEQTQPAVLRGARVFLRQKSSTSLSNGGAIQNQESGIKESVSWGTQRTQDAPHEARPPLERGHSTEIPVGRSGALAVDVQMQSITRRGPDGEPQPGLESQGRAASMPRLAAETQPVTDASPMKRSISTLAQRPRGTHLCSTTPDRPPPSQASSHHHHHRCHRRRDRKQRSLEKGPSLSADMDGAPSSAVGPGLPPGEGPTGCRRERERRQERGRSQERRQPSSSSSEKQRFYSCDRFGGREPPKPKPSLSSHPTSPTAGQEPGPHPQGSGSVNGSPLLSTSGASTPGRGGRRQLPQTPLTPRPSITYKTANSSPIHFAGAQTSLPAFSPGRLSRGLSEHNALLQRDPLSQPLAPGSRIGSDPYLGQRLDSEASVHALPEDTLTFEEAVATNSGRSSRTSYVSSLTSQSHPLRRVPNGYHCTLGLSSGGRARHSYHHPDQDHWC
T2 sequence (Q02410 whole entry): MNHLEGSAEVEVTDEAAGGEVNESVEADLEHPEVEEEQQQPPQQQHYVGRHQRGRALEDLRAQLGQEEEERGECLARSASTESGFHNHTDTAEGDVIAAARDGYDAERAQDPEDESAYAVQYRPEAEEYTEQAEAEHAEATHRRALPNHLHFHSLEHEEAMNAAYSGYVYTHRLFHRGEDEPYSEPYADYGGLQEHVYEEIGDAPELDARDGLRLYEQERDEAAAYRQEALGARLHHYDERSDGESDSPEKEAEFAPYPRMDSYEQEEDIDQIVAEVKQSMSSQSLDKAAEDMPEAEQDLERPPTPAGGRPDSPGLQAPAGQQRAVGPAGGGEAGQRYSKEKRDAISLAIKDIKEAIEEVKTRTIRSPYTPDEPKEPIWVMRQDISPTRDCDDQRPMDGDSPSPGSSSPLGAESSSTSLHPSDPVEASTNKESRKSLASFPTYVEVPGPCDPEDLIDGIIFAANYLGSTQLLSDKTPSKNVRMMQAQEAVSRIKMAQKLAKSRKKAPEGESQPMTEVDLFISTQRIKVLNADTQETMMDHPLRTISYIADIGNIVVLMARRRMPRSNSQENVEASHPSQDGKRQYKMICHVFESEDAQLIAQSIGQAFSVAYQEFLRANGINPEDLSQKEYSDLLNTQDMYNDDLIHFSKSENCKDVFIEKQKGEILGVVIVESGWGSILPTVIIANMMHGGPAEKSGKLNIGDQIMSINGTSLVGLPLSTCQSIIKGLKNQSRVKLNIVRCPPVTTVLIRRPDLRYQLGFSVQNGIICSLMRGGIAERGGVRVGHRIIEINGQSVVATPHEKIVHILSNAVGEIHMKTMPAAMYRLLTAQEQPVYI
Chain of Galanin receptor type 2 (O43603 whole entry): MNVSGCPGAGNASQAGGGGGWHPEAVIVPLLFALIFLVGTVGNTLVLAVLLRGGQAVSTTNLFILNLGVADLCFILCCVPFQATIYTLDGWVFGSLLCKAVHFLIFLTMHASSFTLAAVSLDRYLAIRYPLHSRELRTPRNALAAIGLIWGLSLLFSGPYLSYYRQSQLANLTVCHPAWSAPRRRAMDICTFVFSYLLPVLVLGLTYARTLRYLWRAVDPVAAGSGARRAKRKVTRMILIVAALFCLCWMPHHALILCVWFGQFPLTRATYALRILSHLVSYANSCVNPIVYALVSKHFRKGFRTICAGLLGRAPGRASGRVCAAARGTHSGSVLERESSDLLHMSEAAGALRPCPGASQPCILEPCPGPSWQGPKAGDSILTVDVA
Chain of Sphingosine 1-phosphate receptor 2 (O95136 whole entry): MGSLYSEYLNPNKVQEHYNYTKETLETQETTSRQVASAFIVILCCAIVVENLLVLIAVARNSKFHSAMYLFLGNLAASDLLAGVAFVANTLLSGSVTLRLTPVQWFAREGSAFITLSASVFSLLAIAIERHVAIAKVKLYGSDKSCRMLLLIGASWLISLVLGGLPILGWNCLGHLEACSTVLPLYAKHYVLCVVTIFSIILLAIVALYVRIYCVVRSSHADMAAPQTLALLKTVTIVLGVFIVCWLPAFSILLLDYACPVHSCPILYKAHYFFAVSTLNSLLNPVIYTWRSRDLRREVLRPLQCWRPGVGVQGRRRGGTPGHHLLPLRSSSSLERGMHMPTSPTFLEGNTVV
Chain of Luciferin 4-monooxygenase (P08659 whole entry): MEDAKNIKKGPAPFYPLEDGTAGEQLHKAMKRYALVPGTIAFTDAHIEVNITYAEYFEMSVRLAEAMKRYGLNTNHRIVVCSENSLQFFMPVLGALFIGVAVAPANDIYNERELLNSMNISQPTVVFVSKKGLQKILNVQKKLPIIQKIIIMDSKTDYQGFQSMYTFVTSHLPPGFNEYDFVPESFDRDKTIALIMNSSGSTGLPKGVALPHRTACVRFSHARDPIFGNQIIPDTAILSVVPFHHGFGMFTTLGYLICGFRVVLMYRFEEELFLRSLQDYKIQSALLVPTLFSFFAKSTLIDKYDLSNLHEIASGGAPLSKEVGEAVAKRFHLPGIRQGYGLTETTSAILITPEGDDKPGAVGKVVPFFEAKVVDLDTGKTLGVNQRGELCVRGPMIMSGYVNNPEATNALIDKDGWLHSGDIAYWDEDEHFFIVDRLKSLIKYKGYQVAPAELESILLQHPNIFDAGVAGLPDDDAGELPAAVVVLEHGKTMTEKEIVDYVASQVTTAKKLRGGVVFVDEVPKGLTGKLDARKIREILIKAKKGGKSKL

## Nc1nc(Nc2cccc3ccccc23)nc(C2CCCC2=O)n1 (configuration not stated)
[1]
  IC50: > 100 µM (not active)

## COc1ccc(C2CC(=O)N3CN(c4ccc(C)c(Cl)c4)CSC3=C2C#N)cc1OC (configuration not stated)
[2]
  IC50: > 50 µM (not active)
[3]
  IC50: > 56.8 µM (not active)
[4]
  IC50: > 100 µM (active)
[5]
  EC50: > 112 µM (not active)
[6]
  EC50: > 112 µM (not active)
[7]
  IC50: > 50 µM (inactive)

## CC(C)(C)c1cc(NC(=O)CCl)n(-c2ccccc2)n1
[8]
  IC50: 1.79 µM (active)
[9]
  AC50: 65.1 µM (active)
[10]
  EC50: 13.6 µM (active)

## CCOCCCNc1nc(S)nc2cc(OC)c(OC)cc12
[11]
  EC50: > 50 µM (not active)
[12]
  IC50: 83 µM (active)

## Cc1cc(C)c2nc(NNC(=O)c3ccc(S(=O)(=O)N4CCCC(C)C4)cc3)sc2c1 (configuration not stated)
[13]
  EC50: 0.55 µM (active)
[14]
  EC50: 8.41 µM (active)
[15]
  EC50: > 150 µM (not active)
[16]
  EC50: 1.79 µM (active)
[17]
  EC50: > 350 µM (not active)
[18]
  EC50: > 55.7 µM (not active)
[19]
  EC50: 3.22 µM (active)
[20]
  EC50: 11.5 µM (active)
[21]
  AC50: 1.81 µM (active)

## COc1ccc(CNc2ncnc3ccc(-c4ccccc4OC)cc23)c(OC)c1
[22]
  AC50: 3.98 µM (inconclusive)

Reference: ChEMBL document CHEMBL1201862, “PubChem BioAssay data set” (2004)
